Reference: patent publication US11034672B1, “Tyrosine kinase inhibitor compositions, methods of making and methods of use” (Black Diamond Therapeutics, Inc., priority 2018, dated 2021)

Experiments:
Type in all cases: cell-based
EGFR V3 [1] = target: T1, EGFR V3 (Homo sapiens, UniProt P00533, DELINS30-297G); experiment: BaF3 cell proliferation assay, EGFR V3 (Table A); conditions: potency code, 3 days, CellTiterGlo, read-out: EGFR V3 (Activity for Inhibiting EGFR)
T1 construct: expressed in transfected cells; host or cells: BaF3 (murine pro-B), retroviral pMXs-IRES-Blasticidin
Procedure: (§1) Retroviral Production: EGFR mutants were subcloned into pMXs-IRES-Blasticidin (RTV-016, Cell Biolabs, San Diego, Calif.). Retroviral expression vector retrovirus was produced by transient transfection of HEK 293T cells with the retroviral EGFR mutant expression vector pMXs-IRES-Blasticidin (RTV-016, Cell Biolabs), pCMV-Gag-Pol vector and pCMV-VSV-G-Envelope vector. Briefly, HEK 293T/17 cells were plated in 100 mm collagen coated plate (354450, Corning Life Sciences, Tewksbury, Mass.) (4×10^5 per plate) and incubated overnight. The next day, retroviral plasmids (3 μg of EGFR mutant, 1.0 μg of pCMV-Gag-Pol and 0.5 μg pCMV-VSV-G) were mixed in 500 μl of Optimem (31985, Life Technologies). The mixture was incubated at room temperature for 5 min and then added to Optimem containing transfection reagent Lipofectamine (11668, Invitrogen) and incubated for 20 minutes. Mixture was then added dropwise to HEK 293T cells. The next day the medium was replaced with fresh culture medium and retrovirus was harvested @ 24 and 48 hrs.
(§2) Generation of EGFR mutant stable cell lines: BaF3 cells (1.5E5 cells) were infected with 1 ml of viral supernatant supplemented with 8 μg/ml polybrene by centrifuging for 30 min at 1000 rpm. Cells were placed in a 37° C. incubator overnight. Cells were then spun for 5 minutes to pellet the cells. Supernatant was removed and cells re-infected a fresh 1 ml of viral supernatant supplemented with 8 μg/ml polybrene by centrifuging for 30 min at 1000 rpm. Cells were placed in 37° C. incubator overnight. […] After 48 hours cells were selected for retroviral infection in 10 μg/ml Blasticidin for one week. Blasticidin resistant populations were washed twice in phosphate buffered saline before plating in media lacking IL-3 to select for IL-3 independent growth.
(§3) EC50 values were determined with the same application.

HER2 S310F [2] = target: T2, HER2 S310F (Homo sapiens, UniProt P04626, S310F); experiment: BaF3 cell proliferation assay, HER2 S310F (Table B); conditions: potency code, 3 days, CellTiterGlo, read-out: HER2 S310F (Activity for Inhibiting HER2)
T2 construct: expressed in transfected cells; host or cells: BaF3 (murine pro-B)

HER2 YVMA [3] = target: T3, HER2 YVMA (Homo sapiens, UniProt P04626, INS775YVMA); experiment: BaF3 cell proliferation assay, HER2 YVMA (Table B); conditions: potency code, 3 days, CellTiterGlo, read-out: HER2 YVMA (Activity for Inhibiting HER2)
T3 construct: expressed in transfected cells; host or cells: BaF3 (murine pro-B)

EGFR V3 [4] = target: T1, EGFR V3; experiment: Activity for inhibiting EGFR (Table A), EGFR V3 (EGFR-Viii); conditions: read-out: EGFR V3, potency code (IC50)
HER2 YVMA [5] = target: T3, HER2 YVMA; experiment: Activity for inhibiting HER2 (Table B), HER2 YVMA; conditions: read-out: HER2 YVMA, potency code (IC50)
Procedure: as §3

EGFR WT [6] = target: T4, EGFR WT (Homo sapiens, UniProt P00533); experiment: Activity for inhibiting EGFR (Table A), EGFR WT; conditions: read-out: EGFR WT, potency code (IC50)
HER2 S310F [7] = target: T2, HER2 S310F; experiment: Activity for inhibiting HER2 (Table B), HER2 S310F; conditions: read-out: HER2 S310F, potency code (IC50)
Procedure: as §3

EGFR WT [8] = target: T4, EGFR WT; experiment: BaF3 cell proliferation assay, EGFR WT (Table A); conditions: potency code, 3 days, CellTiterGlo, read-out: EGFR WT (Activity for Inhibiting EGFR)
Procedure: as §1, §2, §3

T4 sequence (P00533 25-1210 N540K): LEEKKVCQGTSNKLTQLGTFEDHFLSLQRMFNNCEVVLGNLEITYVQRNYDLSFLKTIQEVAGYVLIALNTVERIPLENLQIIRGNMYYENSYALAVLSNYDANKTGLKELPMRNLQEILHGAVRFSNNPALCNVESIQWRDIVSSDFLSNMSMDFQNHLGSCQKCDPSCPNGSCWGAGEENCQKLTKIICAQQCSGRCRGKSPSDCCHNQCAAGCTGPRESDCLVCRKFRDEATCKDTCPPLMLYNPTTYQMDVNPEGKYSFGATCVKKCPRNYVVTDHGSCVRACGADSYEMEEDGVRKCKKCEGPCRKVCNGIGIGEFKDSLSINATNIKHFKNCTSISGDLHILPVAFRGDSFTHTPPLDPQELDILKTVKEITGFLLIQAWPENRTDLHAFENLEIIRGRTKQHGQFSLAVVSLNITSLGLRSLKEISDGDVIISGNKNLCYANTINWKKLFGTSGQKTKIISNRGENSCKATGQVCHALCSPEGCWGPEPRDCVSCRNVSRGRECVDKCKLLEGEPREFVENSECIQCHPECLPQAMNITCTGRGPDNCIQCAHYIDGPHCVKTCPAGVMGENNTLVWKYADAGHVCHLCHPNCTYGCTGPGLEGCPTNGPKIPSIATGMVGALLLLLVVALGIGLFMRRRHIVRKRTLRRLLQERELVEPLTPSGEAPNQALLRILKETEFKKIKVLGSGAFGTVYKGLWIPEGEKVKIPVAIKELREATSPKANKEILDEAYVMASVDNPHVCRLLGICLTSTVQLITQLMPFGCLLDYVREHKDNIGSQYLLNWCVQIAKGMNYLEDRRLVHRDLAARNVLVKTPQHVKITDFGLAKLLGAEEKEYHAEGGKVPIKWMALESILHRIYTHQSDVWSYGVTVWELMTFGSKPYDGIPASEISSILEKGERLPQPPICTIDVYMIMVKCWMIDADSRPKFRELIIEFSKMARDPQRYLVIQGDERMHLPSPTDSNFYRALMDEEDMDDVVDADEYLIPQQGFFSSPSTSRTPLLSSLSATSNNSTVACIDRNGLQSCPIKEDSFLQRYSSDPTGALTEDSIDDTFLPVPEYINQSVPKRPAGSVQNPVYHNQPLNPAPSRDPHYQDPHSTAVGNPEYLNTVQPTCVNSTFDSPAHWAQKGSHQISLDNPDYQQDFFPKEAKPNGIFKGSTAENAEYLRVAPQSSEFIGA
T1 sequence (P00533 with tags, fused parts or gaps DELINS30-297G): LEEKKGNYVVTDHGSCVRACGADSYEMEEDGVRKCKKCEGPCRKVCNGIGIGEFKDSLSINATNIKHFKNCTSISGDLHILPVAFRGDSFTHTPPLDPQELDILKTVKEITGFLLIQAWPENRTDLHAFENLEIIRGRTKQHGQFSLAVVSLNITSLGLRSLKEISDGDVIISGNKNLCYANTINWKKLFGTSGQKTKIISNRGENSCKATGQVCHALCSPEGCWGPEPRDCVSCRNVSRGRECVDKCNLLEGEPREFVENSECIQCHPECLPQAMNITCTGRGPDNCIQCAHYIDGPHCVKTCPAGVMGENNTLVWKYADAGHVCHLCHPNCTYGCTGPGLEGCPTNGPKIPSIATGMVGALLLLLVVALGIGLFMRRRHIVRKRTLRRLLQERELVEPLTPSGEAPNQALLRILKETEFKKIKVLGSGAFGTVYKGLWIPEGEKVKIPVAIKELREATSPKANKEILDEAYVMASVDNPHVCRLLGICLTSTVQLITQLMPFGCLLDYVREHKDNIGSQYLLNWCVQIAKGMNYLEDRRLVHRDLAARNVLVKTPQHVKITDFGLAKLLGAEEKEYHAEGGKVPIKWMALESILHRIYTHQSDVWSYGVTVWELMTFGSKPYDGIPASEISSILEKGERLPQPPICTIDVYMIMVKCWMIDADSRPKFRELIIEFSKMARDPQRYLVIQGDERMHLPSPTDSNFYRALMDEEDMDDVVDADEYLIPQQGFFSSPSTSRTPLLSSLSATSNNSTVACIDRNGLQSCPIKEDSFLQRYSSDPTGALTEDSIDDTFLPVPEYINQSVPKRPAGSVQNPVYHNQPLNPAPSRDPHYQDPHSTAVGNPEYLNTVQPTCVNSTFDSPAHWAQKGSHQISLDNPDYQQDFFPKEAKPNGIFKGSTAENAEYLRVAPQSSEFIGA
T2 sequence (P04626 23-1255 S310F): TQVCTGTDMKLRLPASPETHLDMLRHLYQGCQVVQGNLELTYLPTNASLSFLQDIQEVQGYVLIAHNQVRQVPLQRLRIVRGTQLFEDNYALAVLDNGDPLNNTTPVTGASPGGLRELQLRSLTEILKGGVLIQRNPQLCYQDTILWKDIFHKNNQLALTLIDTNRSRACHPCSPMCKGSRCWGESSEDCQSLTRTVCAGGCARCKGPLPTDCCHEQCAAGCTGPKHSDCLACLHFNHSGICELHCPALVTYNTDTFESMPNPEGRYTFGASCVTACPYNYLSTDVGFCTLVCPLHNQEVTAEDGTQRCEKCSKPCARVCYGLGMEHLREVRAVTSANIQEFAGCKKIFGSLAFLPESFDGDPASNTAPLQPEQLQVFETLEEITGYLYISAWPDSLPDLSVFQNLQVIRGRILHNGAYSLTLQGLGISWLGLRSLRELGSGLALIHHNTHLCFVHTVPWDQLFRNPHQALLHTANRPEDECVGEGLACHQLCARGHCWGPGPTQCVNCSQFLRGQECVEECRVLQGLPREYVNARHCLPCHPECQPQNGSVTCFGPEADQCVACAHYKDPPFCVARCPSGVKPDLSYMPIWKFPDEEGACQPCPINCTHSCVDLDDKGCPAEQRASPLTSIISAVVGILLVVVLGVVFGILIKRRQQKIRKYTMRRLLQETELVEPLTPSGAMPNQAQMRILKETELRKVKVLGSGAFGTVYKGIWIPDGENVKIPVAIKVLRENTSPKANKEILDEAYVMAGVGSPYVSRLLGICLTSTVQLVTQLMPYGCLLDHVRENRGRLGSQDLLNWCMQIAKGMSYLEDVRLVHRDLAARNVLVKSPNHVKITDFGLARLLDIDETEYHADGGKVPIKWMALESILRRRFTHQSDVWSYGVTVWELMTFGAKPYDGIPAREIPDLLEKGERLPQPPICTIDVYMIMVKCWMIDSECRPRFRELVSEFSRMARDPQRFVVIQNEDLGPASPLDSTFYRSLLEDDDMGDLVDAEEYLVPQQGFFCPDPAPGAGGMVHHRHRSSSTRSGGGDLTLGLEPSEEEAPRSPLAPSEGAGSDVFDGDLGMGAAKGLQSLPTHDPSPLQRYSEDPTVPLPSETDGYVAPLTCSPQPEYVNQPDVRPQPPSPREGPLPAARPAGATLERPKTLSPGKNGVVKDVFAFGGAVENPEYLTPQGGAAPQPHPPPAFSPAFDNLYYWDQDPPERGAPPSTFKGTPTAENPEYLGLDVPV
T3 sequence (P04626 with tags, fused parts or gaps INS775YVMA): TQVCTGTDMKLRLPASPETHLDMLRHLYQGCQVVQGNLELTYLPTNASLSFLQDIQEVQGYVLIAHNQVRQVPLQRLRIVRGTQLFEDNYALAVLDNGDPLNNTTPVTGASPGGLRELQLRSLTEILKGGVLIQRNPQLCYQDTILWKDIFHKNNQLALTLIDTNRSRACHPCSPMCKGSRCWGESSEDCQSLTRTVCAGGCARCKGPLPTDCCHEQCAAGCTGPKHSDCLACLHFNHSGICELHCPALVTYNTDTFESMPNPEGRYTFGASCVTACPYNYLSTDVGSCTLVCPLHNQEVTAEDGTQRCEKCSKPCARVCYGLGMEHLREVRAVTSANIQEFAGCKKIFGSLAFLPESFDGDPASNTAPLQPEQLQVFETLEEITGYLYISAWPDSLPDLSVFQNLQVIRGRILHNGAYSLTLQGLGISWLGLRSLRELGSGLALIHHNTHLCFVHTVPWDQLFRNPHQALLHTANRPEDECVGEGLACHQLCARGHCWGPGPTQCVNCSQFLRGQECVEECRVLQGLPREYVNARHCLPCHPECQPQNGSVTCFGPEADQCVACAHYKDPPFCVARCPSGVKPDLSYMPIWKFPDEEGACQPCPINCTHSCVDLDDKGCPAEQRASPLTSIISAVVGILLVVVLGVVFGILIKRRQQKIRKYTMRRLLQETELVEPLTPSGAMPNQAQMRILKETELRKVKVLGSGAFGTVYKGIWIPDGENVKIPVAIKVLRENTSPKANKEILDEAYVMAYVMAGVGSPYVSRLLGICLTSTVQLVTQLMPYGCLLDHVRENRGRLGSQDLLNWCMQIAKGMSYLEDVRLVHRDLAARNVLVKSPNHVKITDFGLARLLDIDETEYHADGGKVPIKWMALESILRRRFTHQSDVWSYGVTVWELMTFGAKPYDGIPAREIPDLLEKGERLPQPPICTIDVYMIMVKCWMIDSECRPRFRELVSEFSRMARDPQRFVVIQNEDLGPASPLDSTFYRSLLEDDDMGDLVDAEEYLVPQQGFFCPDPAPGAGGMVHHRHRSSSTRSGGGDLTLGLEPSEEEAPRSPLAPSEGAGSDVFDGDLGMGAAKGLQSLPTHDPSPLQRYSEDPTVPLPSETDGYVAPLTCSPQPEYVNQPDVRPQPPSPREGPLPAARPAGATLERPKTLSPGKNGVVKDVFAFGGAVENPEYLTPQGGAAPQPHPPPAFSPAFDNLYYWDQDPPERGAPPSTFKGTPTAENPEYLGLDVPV

SMILES | IC50 (EGFR V3 [1]) | IC50 (HER2 S310F [2]) | IC50 (HER2 YVMA [3]) | IC50 (EGFR V3 [4]) | IC50 (HER2 YVMA [5]) | IC50 (EGFR WT [6]) | IC50 (HER2 S310F [7]) | IC50 (EGFR WT [8])
C=CC(=O)Nc1cc2c(Nc3ccc(OCc4ccccn4)c(Cl)c3)ncnc2cc1OC[C@H]1COCCN1 [compound 90, N-(4-((3-chloro-4-(pyridin-2-ylmethoxy)phenyl)amino)-7-(morpholin-3-ylmethoxy)quinazolin-6-yl)acrylamide] | 30 to 50 nM | 20 to 30 nM | 100 to 200 nM | 30 to 50 nM | 100 to 200 nM | 500 to 1000 nM | 20 to 30 nM | 500 to 1000 nM
C=CC(=O)Nc1cc2c(Nc3ccc(Oc4ccccc4)c(Cl)c3)ncnc2cc1O[C@@H]1CCN(C)C1 [compound 91, (R)-N-(4-((3-chloro-4-phenoxyphenyl)amino)-7-((1-methylpyrrolidin-3-yl)oxy)quinazolin-6-yl)acrylamide] | 50 to 100 nM | 30 to 50 nM | 200 to 300 nM | 50 to 100 nM | 200 to 300 nM | 500 to 1000 nM | 30 to 50 nM | 500 to 1000 nM
C=CC(=O)Nc1cc2c(Nc3ccc(OCc4ccccn4)c(Cl)c3)ncnc2cc1OCCN1CCC2C1CCN2C (stereo not drawn) [compound 92, N-(4-((3-chloro-4-(pyridin-2-ylmethoxy)phenyl)amino)-7-(2-(4-methylhexahydropyrrolo[3,2-b]pyrrol-1(2H)-yl)ethoxy)quinazolin-6-yl)acrylamide] | 30 to 50 nM | 20 to 30 nM | 100 to 200 nM | 30 to 50 nM | 100 to 200 nM | 100 to 200 nM | 20 to 30 nM | 100 to 200 nM
C=CC(=O)Nc1cc2c(Nc3ccc(OCc4ccccn4)c(Cl)c3)ncnc2cc1N1CC(N(C)C)C1 [compound 93, N-(4-((3-chloro-4-(pyridin-2-ylmethoxy)phenyl)amino)-7-(3-(dimethylamino)azetidin-1-yl)quinazolin-6-yl)acrylamide] | 200 to 300 nM | 500 to 1000 nM | > 1000 nM | 200 to 300 nM | > 1000 nM | > 1000 nM | 500 to 1000 nM | > 1000 nM
C=CC(=O)Nc1cc2c(Nc3ccc(OCc4ccccn4)c(Cl)c3)ncnc2cc1OCC(C)(C)N(C)C [compound 94, N-(4-((3-chloro-4-(pyridin-2-ylmethoxy)phenyl)amino)-7-(2-(dimethylamino)-2-methylpropoxy)quinazolin-6-yl)acrylamide] | 30 to 50 nM | 30 to 50 nM | 300 to 500 nM | 30 to 50 nM | 300 to 500 nM | 300 to 500 nM | 30 to 50 nM | 300 to 500 nM
C=CC(=O)Nc1cc2c(Nc3ccc(OCc4ccccn4)c(Cl)c3)ncnc2cc1OCC[C@H]1CCCN1C [compound 95, N-(4-((3-chloro-4-(pyridin-2-ylmethoxy)phenyl)amino)-7-(2-(1-methylpyrrolidin-2-yl)ethoxy)quinazolin-6-yl)acrylamide] | 20 to 30 nM | 5 to 10 nM | 30 to 50 nM | 20 to 30 nM | 30 to 50 nM | 100 to 200 nM | 5 to 10 nM | 100 to 200 nM
C=CC(=O)Nc1cc2c(Nc3cnc(NCc4ccccn4)c(Cl)c3)ncnc2cc1OCCN1CCOCC1 [compound 97, N-(4-((5-chloro-6-((pyridin-2-ylmethyl)amino)pyridin-3-yl)amino)-7-(2-morpholinoethoxy)quinazolin-6-yl)acrylamide] | 50 to 100 nM | 200 to 300 nM | 500 to 1000 nM | 50 to 100 nM | 500 to 1000 nM | 500 to 1000 nM | 200 to 300 nM | 500 to 1000 nM
C=CC(=O)Nc1cc2c(Nc3ccc(OCc4ccccn4)c(Cl)c3)ncnc2cc1OCC1(CN(C)C)CC1 [compound 98, N-(4-((3-chloro-4-(pyridin-2-ylmethoxy)phenyl)amino)-7-((1-((dimethylamino)methyl)cyclopropyl)methoxy)quinazolin-6-yl)acrylamide] | 30 to 50 nM | 20 to 30 nM | 200 to 300 nM | 30 to 50 nM | 200 to 300 nM | 200 to 300 nM | 20 to 30 nM | 200 to 300 nM
C=CC(=O)Nc1cc2c(Nc3ccc(OCc4ccccn4)c(Cl)c3)ncnc2cc1O[C@H]1CCCN(C)CC1 [compound 99, N-(4-((3-chloro-4-(pyridin-2-ylmethoxy)phenyl)amino)-7-((1-methylazepan-4-yl)oxy)quinazolin-6-yl)acrylamide] | 20 to 30 nM | 30 to 50 nM | 200 to 300 nM | 20 to 30 nM | 200 to 300 nM | 200 to 300 nM | 30 to 50 nM | 200 to 300 nM
C=CC(=O)Nc1cc2c(Nc3cc(C)c(OCc4ccccn4)cc3F)ncnc2cc1OCCN1CCOCC1 [compound 100, N-(4-((2-fluoro-5-methyl-4-(pyridin-2-ylmethoxy)phenyl)amino)-7-(2-morpholinoethoxy)quinazolin-6-yl)acrylamide] | 30 to 50 nM | 50 to 100 nM | 300 to 500 nM | 30 to 50 nM | 300 to 500 nM | 300 to 500 nM | 50 to 100 nM | 300 to 500 nM
C=CC(=O)Nc1cc2c(Nc3ccc(OCc4ccccn4)c(Cl)c3)ncnc2cc1OC[C@H]1CCN(C)C1 [compound 101, N-(4-((3-chloro-4-(pyridin-2-ylmethoxy)phenyl)amino)-7-((1-methylpyrrolidin-3-yl)methoxy)quinazolin-6-yl)acrylamide] | 10 to 20 nM | 10 to 20 nM | 30 to 50 nM | 10 to 20 nM | 30 to 50 nM | 100 to 200 nM | 10 to 20 nM | 100 to 200 nM
C=CC(=O)Nc1cc2c(Nc3ccc(OCc4ccccn4)c(Cl)c3)ncnc2cc1OC[C@H]1C[C@@H]2CN(C)C[C@@H]2C1 [compound 103, N-(4-((3-chloro-4-(pyridin-2-ylmethoxy)phenyl)amino)-7-(((3aR,5s,6aS)-2-methyloctahydrocyclopenta[c]pyrrol-5-yl)methoxy)quinazolin-6-yl)acrylamide] | 30 to 50 nM | 10 to 20 nM | 50 to 100 nM | 30 to 50 nM | 50 to 100 nM | 200 to 300 nM | 10 to 20 nM | 200 to 300 nM
C=CC(=O)Nc1cc2c(Nc3ccc(Oc4ccc(C)nc4)c(C)c3)ncnc2cc1C#C[C@@H]1[C@H]2CN(C)C[C@@H]12 [compound 104, N-(7-(((1R,5S,6s)-3-methyl-3-azabicyclo[3.1.0]hexan-6-yl)ethynyl)-4-((3-methyl-4-((6-methylpyridin-3-yl)oxy)phenyl)amino)quinazolin-6-yl)acrylamide] | 30 to 50 nM | 30 to 50 nM | 30 to 50 nM | 30 to 50 nM | 30 to 50 nM | 20 to 30 nM | 30 to 50 nM | 20 to 30 nM
C=CC(=O)Nc1cc2c(Nc3ccc(OCc4ccccn4)c(Cl)c3)ncnc2cc1C#CC1[C@H]2CNC[C@@H]12 (stereo partly drawn) [compound 105, N-(7-((1R,5S,6s)-3-azabicyclo[3.1.0]hexan-6-ylethynyl)-4-((3-chloro-4-(pyridin-2-ylmethoxy)phenyl)amino)quinazolin-6-yl)acrylamide] | 50 to 100 nM | 30 to 50 nM | 100 to 200 nM | 50 to 100 nM | 100 to 200 nM | 500 to 1000 nM | 30 to 50 nM | 500 to 1000 nM
C=CC(=O)Nc1cc2c(Nc3ccc(Oc4ccccc4)cc3)ncnc2cc1C#C[C@@H]1[C@H]2CN(C)C[C@@H]12 [compound 106, N-(7-(((1R,5S,6s)-3-methyl-3-azabicyclo[3.1.0]hexan-6-yl)ethynyl)-4-((4-phenoxyphenyl)amino)quinazolin-6-yl)acrylamide] | 30 to 50 nM | 30 to 50 nM | 100 to 200 nM | 30 to 50 nM | 100 to 200 nM | 100 to 200 nM | 30 to 50 nM | 100 to 200 nM
